# Measurements reported in patent publication US8609639B2, “Stat3 inhibitor having anti-cancer activity and methods” (University of South Florida, priority 2006, dated 2013).
# Residues, ends and D or L forms follow the SMILES beside them. *: point of attachment. Cbz = O=C(OCc1ccccc1)*
# Key:
# [1] = system: Stat3-YFP in NIH3T3/v-Src/Stat3-YFP fibroblasts; assay: Fluorescence and confocal microscopy of Stat3-YFP signal; type: cell-based, mouse; design: Stat3-YFP fluorescence signal: dose or concentration left out as unconfirmed; conditions: for aggregated bodies (aggresomes) of Stat3-YFP: within 5 h of treatment, laser scanning confocal microscopy; for Stat3-YFP fluorescence signal: S3I-M2001, loss evident from 2-5 h, MG132 alone
# Experimental: NIH3T3/vSrc cells were either stably transfected with Stat3-YFP construct (23), or growing in 96-well plates on chamber slides were transiently transfected with the Stat3-YFP plasmid (23) using Lipofectamine 2000 for 24 h according to the manufacturer's protocol (Roche), treated with or without S3I-M2001 for different times, and examined under Nikon Eclipse TE200 fluorescence microscope (Nikon). Images were captured and processed by NIKON NIS element-Basic research software.
# Specimens were then washed 5 times with PBS, covered with cover slides with [sequence] mounting medium containing DAPI, and examined immediately under Leica TCS SP5 confocal microscope (Germany) at appropriate wavelengths depending on GFP or YFP. Images were captured and processed using the Leica TCS SP 5 software.
# [2] = system: GFP in NIH3T3/v-Src/GFP fibroblasts
# [3] = target: Stat3 activation over that of Stat1 (Mus musculus, UniProt P42227); assay: rhEGF-induced STAT activation in NIH3T3/hEGFR fibroblasts (EMSA); type: cell-based
# Chain of Stat3 activation over that of Stat1 (P42227 whole entry): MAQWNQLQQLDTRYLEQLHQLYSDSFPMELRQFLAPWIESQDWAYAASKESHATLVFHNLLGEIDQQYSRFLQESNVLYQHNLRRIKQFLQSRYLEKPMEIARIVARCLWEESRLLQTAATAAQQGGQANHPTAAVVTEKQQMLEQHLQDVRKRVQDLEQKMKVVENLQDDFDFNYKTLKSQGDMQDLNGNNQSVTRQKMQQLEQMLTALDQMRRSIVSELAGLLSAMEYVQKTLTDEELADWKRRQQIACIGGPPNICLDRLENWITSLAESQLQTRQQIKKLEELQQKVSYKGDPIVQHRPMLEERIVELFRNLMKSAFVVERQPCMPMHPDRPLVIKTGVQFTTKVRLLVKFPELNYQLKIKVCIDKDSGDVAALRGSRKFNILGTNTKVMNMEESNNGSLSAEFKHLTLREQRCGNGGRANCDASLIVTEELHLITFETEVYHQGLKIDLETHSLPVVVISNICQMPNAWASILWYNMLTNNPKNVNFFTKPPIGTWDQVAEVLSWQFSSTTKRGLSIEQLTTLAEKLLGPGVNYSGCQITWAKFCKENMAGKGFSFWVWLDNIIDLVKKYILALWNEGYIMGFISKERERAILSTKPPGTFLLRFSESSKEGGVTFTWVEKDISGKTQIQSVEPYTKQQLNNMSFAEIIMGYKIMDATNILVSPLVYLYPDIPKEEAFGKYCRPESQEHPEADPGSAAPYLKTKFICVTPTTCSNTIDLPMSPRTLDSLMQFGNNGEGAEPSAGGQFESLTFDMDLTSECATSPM
# Experimental: (§1) Nuclear extract preparation from cells and EMSA were carried out as previously described (9-12, 16, 18, 40). Nuclear extract preparations from v-Src-transformed (NIH3T3/v-Src) or EGF-stimulated NIH3T3/hEGFR fibroblasts, or tumor cell lines were subjected to EMSA. The 32P-labeled oligonucleotide probe used was hSIE (high affinity sis-inducible element from the c-fos gene, m67 variant, as reported by Wagner et al. (42), and that binds Stat1 and Stat3. Except where indicated, inhibitor compound was pre-incubated with the nuclear extract for 30 min at room temperature prior to incubation with radiolabeled hSIE probe. Where necessary, cells were stimulated with recombinant human EGF (rhEGF) for 5-15 min prior to preparation of nuclear extracts. Bands corresponding to DNA-binding activities were scanned and quantified for each concentration of compound and plotted as percent of control (vehicle) against concentration of compound, from which the IC50 values were derived, as previously reported (9, 10, 42).
# [4] = system: v-Src-induced Stat3-dependent pLucTKS3 luciferase reporter; assay: Transient transfection luciferase reporter, Stat3-dependent; type: cell-based, mouse; conditions: NIH3T3 fibroblasts co-transfected with v-Src
# [5] = system: constitutively-active Stat3; assay: Constitutive Stat3 Tyr phosphorylation and activation in cells (EMSA, Western blot, immunocytostaining); type: cell-based, mouse, human; conditions: NIH3T3/v-Src, MDA-MB-231 and MDA-MB-435 cell lines
# Experimental: as §1, with “42). […]” for “42).”
# [6] = system: Bcl-xL expression in NIH3T3/v-Src and MDA-MB-435 cells; assay: Western blot analysis for Bcl-xL; type: cell-based, mouse, human
# From the text: (§2) Whole-cell lysates prepared in boiling SDS sample-loading buffer. i.p. from lysates using monoclonal anti-Stat3 antibody (Cell Signaling Technology), and the probing of nitrocellulose membranes with primary antibodies and detection of horseradish peroxidase-conjugated secondary antibodies by enhanced chemiluminescence (Amersham Biosciences) were done, as previously described (13, 17, 19, 21). The probes used were anti-Stat3 (Santa Cruz), anti-pTyr705Stat3 (Cell Signaling Technology), anti-YFP antibodies (Santa Cruz), anti-Bcl-xL, anti-pSrc, anti-Src, anti-pJak1, anti-Jak1, anti-pEr1/2 and anti-Erk1/2, and b-actin (Cell Signaling Technology).
# [7] = system: Stat3 nuclear localization in EGF-stimulated NIH3T3/hEGFR; assay: Immunofluorescence/confocal microscopy of Stat3 nuclear localization; type: cell-based, mouse; design: dose or concentration left out as unconfirmed; conditions: for 3 h prior to rhEGF stimulation for 10 min
# Experimental: NIH3T3/hEGFR cells were grown in multi-cell plates and treated with or without S3I-M2001 for 3 h prior to stimulation by rhEGF (10 ng/ml) for 10 min or NIH3T3/vSrc cells were grown in multi-cell plates or chamber slides and cells were fixed with 4% paraformaldehyde for 15 min. Cells were washed 3 times in PBS, permeabilized with 0.2% Triton X for 5 min, and further washed 3-4 times with PBS. Specimens were then blocked in 5% goat serum for 60 min and incubated with Stat3 (Cell Signaling Technology) or Hook2 (Santa Cruz, Santa Cruz, Calif.) antibody at 1:50 dilution at 4° C. overnight. Subsequently, cells were rinsed 4-5 times in PBS, incubated with Alexa fluor 488 rabbit antibody (Molecular probe, Eugene, Oreg.) for (Stat3 detection) or NL637 goat antibody (R&D Systems, Minneapolis, Minn.) for Hook2 for 1-2 h at room temperature in the dark. Specimens were then washed 5 times with PBS, covered with cover slides with [sequence] mounting medium containing DAPI, and examined immediately under Leica TCS SP5 confocal microscope (Germany) at appropriate wavelengths depending on GFP or YFP. Images were captured and processed using the Leica TCS SP 5 software.
# [8] = target: T1, Stat3 ubiquitination in NIH3T3/v-Src fibroblasts (Mus musculus, UniProt P42227); assay: Immunoblotting for ubiquitin of Stat3 immunoprecipitates; type: cell-based; conditions: up to 24 h treatment
# T1 construct: endogenous in cells; host or cells: NIH3T3/v-Src
# T1 sequence (P42227 whole entry): as above
# From the text: as §2
# Stat3:Stat3 = target: T2, Stat3:Stat3 (Mus musculus, UniProt P42227); assay: STAT DNA-binding assay/EMSA in nuclear extracts (hSIE probe); type: biochemical; conditions: from EMSA IC50 values
# T2 construct: Nuclear extract preparations from v-Src-transformed (NIH3T3/v-Src) or EGF-stimulated NIH3T3/hEGFR fibroblasts, or tumor cell lines were subjected to EMSA; endogenous in cells; host or cells: NIH3T3/v-Src or EGF-stimulated NIH3T3/hEGFR fibroblasts (nuclear extracts)
# T2 sequence (P42227 2-770 limits assumed): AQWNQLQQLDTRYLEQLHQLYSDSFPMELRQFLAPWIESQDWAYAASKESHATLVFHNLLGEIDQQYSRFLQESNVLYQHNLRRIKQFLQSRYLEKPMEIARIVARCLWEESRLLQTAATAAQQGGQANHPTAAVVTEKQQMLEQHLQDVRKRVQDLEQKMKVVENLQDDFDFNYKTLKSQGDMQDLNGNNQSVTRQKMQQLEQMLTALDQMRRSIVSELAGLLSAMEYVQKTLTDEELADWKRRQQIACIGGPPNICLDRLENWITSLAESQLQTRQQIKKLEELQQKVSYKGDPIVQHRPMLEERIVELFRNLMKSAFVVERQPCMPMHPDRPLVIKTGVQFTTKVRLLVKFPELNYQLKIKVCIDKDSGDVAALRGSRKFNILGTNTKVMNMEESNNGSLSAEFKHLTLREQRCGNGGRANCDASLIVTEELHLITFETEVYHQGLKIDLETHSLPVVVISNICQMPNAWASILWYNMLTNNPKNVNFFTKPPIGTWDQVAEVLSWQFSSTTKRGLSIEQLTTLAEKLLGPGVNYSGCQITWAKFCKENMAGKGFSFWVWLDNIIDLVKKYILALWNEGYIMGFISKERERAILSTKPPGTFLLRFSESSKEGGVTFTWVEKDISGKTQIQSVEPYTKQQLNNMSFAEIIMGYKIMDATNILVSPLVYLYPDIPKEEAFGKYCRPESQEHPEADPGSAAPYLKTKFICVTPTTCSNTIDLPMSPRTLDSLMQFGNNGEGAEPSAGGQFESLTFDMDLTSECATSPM
# Experimental: as §1
# NIH3T3/v-Src [9] = assay: Cell migration assay (Bio-Coat chambers); type: cell-based, mouse; design: dose or concentration left out as unconfirmed; conditions: S3I-M2001, 24 h
# Experimental: (§3) Cell migration experiments were carried out using Bio-Coat migration chambers (Becton Dickinson, Franklin, N.J.) of 24-well companion plates with cell culture inserts containing […] pore size filters, according to the manufacturer's protocol. […] After 24-h incubation (37° C., 5% CO2), the filters were removed and the upper surface was wiped with a cotton-tipped applicator to remove non-migratory cells. Cells that had migrated through the filter pores and attached to bottom surface of the filter were fixed and stained. The membranes were mounted on glass slides and cells from 10 random microscopic fields (×400 magnification) were counted. Cell invasion experiments were performed using same Bio-Coat invasion chambers (Becton Dickenson), as already described, except that here, filters ([…]) were used coated with the basement membrane matrigel. Percent inhibition is calculated as 100−y, where y equals residual number of stained cells in the treated/total number in the control ×100.
# NIH3T3/v-Src [10] = assay: Matrigel invasion assay; type: cell-based, mouse; design: dose or concentration left out as unconfirmed; conditions: matrigel-coated filters, 24 h
# Experimental: as §3
# Stat3:Stat3 dimer = target: T3, Stat3:Stat3 dimer (Homo sapiens, UniProt P40763); assay: Dissociation-reassociation analysis with EMSA (pooled lysates of activated Stat1 and Stat3); type: biochemical; conditions: pooled lysates of activated Stat1 and Stat3, increasing concentration
# T3 construct: made in house; host or cells: Sf-9 insect cells (baculovirus; co-infected with Jak1 and c-Src)
# T3 sequence (P40763 whole entry): as the sequence (P42227 whole entry) above, with D760E counted along it
# From the text: Infect of Sf-9 cells with Stat1, Stat3, Jak1, and c-Src recombinant baculoviruses and preparation of the cell lysates containing activated Stat1 or Stat3 have been previously described (9, 21).
# In the previously reported dissociation-reassociation analysis (9, 10, 20), two independently-prepared cell lysate, one containing only activated Stat3:Stat3 dimer and the other containing only activated Stat1:Stat1 dimer (21), were mixed together and pre-treated with or without increasing concentration of S3I-M2001 and subjected to STAT DNA-binding assay with EMSA analysis.
# The dissociation-reassociation analysis with EMSA analysis was performed, as previously done (10, 20).
# [11] = system: pJak1, pSrc and pErk1/2 (MAPKs); assay: Western blot of whole-cell lysates for non-Stat3 signalling proteins; type: cell-based, mouse; conditions: NIH3T3/v-Src fibroblasts
# From the text: as §2
# [12] = system: NIH3T3/v-Src, MDA-MB-231 and MDA-MB-435 cells; assay: TUNEL and Annexin V binding/Flow Cytometry apoptosis, cells harbouring aberrant Stat3; type: cell-based, mouse, human; design: apoptosis (Annexin V) after transfection with Stat3 SH2 domain: dose or concentration left out as unconfirmed
# Experimental: (§4) In some cases, cells were first transfected with the plasmid for the Stat3 SH2 (ST3-SH2) domain or mock-transfected (pcDNA3 empty vector) for 24 h or untransfected prior to treatment with S3I-M2001 for an additional 24-48 h. Cells were then detached and analyzed by Annexin V binding (BD Biosciences, San Diego) according to the manufacturer's protocol and Flow Cytometry to quantify the percent apoptosis.
# [13] = system: normal NIH3T3, MCF-10A, MDA-MB-453, HUVEC, HAEC and HL-60 cells; assay: TUNEL and Annexin V apoptosis, cells without aberrant Stat3; type: cell-based, mouse, human; conditions: cells that do not contain aberrant Stat3
# Experimental: as §4
# [14] = system: MDA-MB-231 tumor xenografts; assay: Human breast tumor xenografts in athymic nude mice; type: in vivo, mouse
# Experimental: Six-week-old female athymic nude mice were purchased from Harlan and maintained in the institutional animal facilities approved by the American Association for Accreditation of Laboratory Animal Care. Athymic nude mice were injected subcutaneously in the left flank area with 5×10^6 human breast cancer MDA-MB-231 cells in […] of PBS. After 5 to 10 days, tumors of a diameter of 3 mm were established. Animals were grouped so that the mean tumor sizes in all groups were nearly identical, given S3I-[…] i.v. at 5, 10 and 20 mg/kg every 2 or every 3 days for 26 days and monitored every 2 or 3 days, and tumor sizes were measured with calipers. Tumor volume was calculated according to the formula V=0.52×a2×b, where a, smallest superficial diameter, b, largest superficial diameter.
# [15] = system: NIH3T3/v-Src and Panc-1 cells; assay: Soft-agar colony formation assay, cells with active Stat3; type: cell-based, mouse, human; conditions: treated every three days
# Experimental: (§5) Colony formation assays were carried out in six-well dishes and colonies were enumerated as previously described (19). Treatment with S3I-M2001 was initiated 1 day after seeding cells in soft-agar suspension by adding […] of medium with or without compound, and repeated every three days, until large colonies were evident.
# [16] = system: MDA-MB-435, MDA-MB-231, Panc-1 cancer cells and NIH3T3/v-Src fibroblasts; assay: WST-1 cell viability assay, cells harbouring constitutively-active Stat3; type: cell-based, human, mouse; conditions: WST-1 and trypan blue exclusion/cell counting
# Experimental: as §4
# Panc-1 [17] = assay: Matrigel invasion assay; type: cell-based, human; design: dose or concentration left out as unconfirmed; conditions: matrigel-coated filters, 24 h
# Experimental: as §3
# MDA-MB-231 [18] = assay: Matrigel invasion assay; type: cell-based, human; design: dose or concentration left out as unconfirmed; conditions: matrigel-coated filters, 24 h
# Experimental: as §3
# Panc-1 [19] = assay: Cell migration assay (Bio-Coat chambers); type: cell-based, human; design: dose or concentration left out as unconfirmed; conditions: S3I-M2001, 24 h
# Experimental: as §3
# MDA-MB-231 [20] = assay: Cell migration assay (Bio-Coat chambers); type: cell-based, human; design: dose or concentration left out as unconfirmed; conditions: S3I-M2001, 24 h
# Experimental: as §3
# Lck SH2-GST = Lck SH2-GST (Homo sapiens, UniProt P06239); assay: Lck-SH2 domain ELISA assay; type: binding; design: dose or concentration left out as unconfirmed; conditions: S3I-M2001
# Chain of Lck SH2-GST (P06239 127-224 limits assumed): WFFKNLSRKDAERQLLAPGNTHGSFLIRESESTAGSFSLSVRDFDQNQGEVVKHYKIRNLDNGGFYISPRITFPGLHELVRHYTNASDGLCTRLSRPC
# Experimental: An ELISA assay for the binding of Lck-SH2 domain with its conjugate phosphopeptide, biotinyl-e-Ac-EPQpYEEIEL-OH, was carried out, as previously described (13, 22). Absorbance reading (450 nm) for the peroxidase reaction was determined with an ELISA plate reader.
# NIH3T3/v-Ras = assay: Soft-agar colony formation assay, v-Ras transformed fibroblasts; type: cell-based, mouse; conditions: NIH3T3/v-Ras lacking constitutively-active Stat3
# Experimental: as §5
smiles,measurement,setting,value
"N.N.[Cl][Pt][Cl] [Cisplatin, reference compound]",aggregated bodies (aggresomes) of Stat3-YFP,[1],no such effect
"CC(C)C[C@@H](C=O)NC(=O)[C@H](CC(C)C)NC(=O)[C@H](CC(C)C)NC(=O)OCc1ccccc1 [MG132, reference compound] (Cbz-Leu-Leu-Leu-aldehyde)",GFP signal change,[2],no evidence of GFP signal change
same,Stat3-YFP fluorescence signal,[1],no appreciable effect
CCCCCCNC(=O)c1nc(-c2cccc3ccccc23)oc1Cc1ccc(OP(=O)(O)O)cc1 [S3I-M2001],GFP signal change,[2],no evidence of GFP signal change
same,rhEGF-induced Stat3 activation versus Stat1,[3],preferentially inhibited
same,Stat3-dependent pLucTKS3 luciferase reporter activity,[4],inhibited
same,constitutive Stat3 Tyr phosphorylation and activation,[5],inhibited constitutive Stat3 Tyr phosphorylation and activation
same,Bcl-xL expression,[6],diminished Bcl-xL expression
same,EGF-induced nuclear staining of Stat3,[7],significantly attenuated
same,level of Stat3 ubiquitination,[8],strong and time-dependent increase
same,preferential inhibition of Stat3 activity over Stat1,Stat3:Stat3,2 fold
same,Stat3-YFP fluorescence signal,[1],time-dependent decrease
same,aggregated bodies (aggresomes) of Stat3-YFP,[1],accompanied by aggregated bodies
same,inhibition of migration,NIH3T3/v-Src [9],76%
same,inhibition of invasion,NIH3T3/v-Src [10],28%
same,Stat3:Stat3 DNA-binding activity in pooled lysates,Stat3:Stat3 dimer,concentration-dependent diminution
same,"pJak1, pSrc and pErk1/2 levels",[11],not repressed
same,apoptosis (Annexin V) after transfection with Stat3 SH2 domain,"[12]; 3T3/v-Src/ST3-SH2 versus mock-transfected or untransfected, 24 h",diminished apoptosis
same,"apoptosis (TUNEL, Annexin V)","[12]; NIH3T3/v-Src, MDA-MB-231, MDA-MB-435, 48 h (TUNEL)",strong apoptosis
same,"apoptosis (TUNEL, Annexin V)",[13],minimal effect
same,viability of animals,"[14]; highest dose applied, 20 mg kg-1 i.v.",remained viable
same,growth of tumors (tumor volume),"[14]; i.v. 5, 10 and 20 mg kg-1 every 2 or 3 days for 26 days",strongly inhibited growth of tumors
same,Stat3 activity and pTyr levels in residual tumor tissue,"[14]; tumors T1 and T2, 3 days after last 5 mg kg-1 injection, EMSA and Western blot",abrogated Stat3 activity and pTyr levels
same,growth in soft-agar,[15],blocked growth in soft-agar
same,selective loss of viability of cells with constitutively-active Stat3 versus cells lacking it,[16],greater than 2 fold
same,inhibition of invasion,Panc-1 [17],38%
same,inhibition of invasion,MDA-MB-231 [18],48%
same,inhibition of migration,Panc-1 [19],21%
same,inhibition of migration,MDA-MB-231 [20],37%
same,binding of Lck SH2-GST to phosphopeptide biotinyl-e-Ac-EPQpYEEIEL-OH,Lck SH2-GST,minimal effect
same,growth in soft-agar,NIH3T3/v-Ras,no appreciable effects
